Reference: US8546338B2, “Self-assembling hydrogels based on dicephalic peptide amphiphiles” (Johnson & Johnson Consumer Companies, Inc., priority 2010, dated 2013)

Legend:
Sprague-Dawley rats = experiment: Biocompatibility study, gel injected into intra-gluteal muscle pocket; assay type: in vivo; conditions: rat, in vivo
Protocol: A biocompatibility study was performed on Gly-Val-Ala-Val-Ala-Val-Ala-Glu-Gly-Glu (SEQ ID NO: 4), Gly-Phe-Gly-Phe-Gly-Phe-Gly-Glu-Gly-Glu (SEQ ID NO: 5) and Gly-Phe-Gly-Phe-Gly-Phe-Gly-Gln-Gln-Ser (SEQ ID NO: 8) DPAs. Lyophilized DPA powders were e-beam sterilized in 1.5 cc polypropylene cryovials at 15 KGy. Gels were pre-formed in 1 cc syringes by mixing a 4 wt % DPA solution in water for injection in a 1:1 ratio with DMEM followed by immediate aspiration into the syringe. In the case of the formulations with the Glu-Gly-Glu (SEQ ID NO: 27) sequence in the solubility enhancing region, 10 μl of a sterile 100 mg/cc calcium chloride solution was mixed in before aspiration into the syringe. An intra-gluteal muscle pocket was created in Sprague-Dawley rats after which 100 μl of gel was injected using a catheter fitted to the syringe. Subsequently, the pocket was closed with polyglactin 910 sutures sold under the tradename VICRYL (Ethicon, Somerville, N.J.). Tissue was harvested at 3, 7 and 28 days after implantation.

[1] = tested on: human internal mammary artery derived cells (IMACs); experiment: Cell viability of encapsulated IMACs in DPA gels (Live/Dead); assay type: cell-based; conditions: 2% DPA gel
Protocol: The viability and proliferation of cells in the gels was evaluated by encapsulating human internal mammary artery derived cells (IMACs) in the gels. IMACs were isolated as described in copending U.S. patent application Ser. No. 12/885,855. Cells were thawed from storage and cultured for four days in advanced DMEM/F12 media. After four days, the cells were trypsinized and counted by the Guava ViaCount (Millipore, Billerica, Mass.) methodology. Cells were re-suspended in advanced DMEM/F12 media at a density of 1,000,000 cells/ml. Encapsulation of the cells in the gels was achieved by adding 100 μl cell suspension to 100 μl of a 4 wt % DPA solution in ultrapure in a 24 well plate, resulting in a final DPA concentration of 2%. The gels were incubated for 1 h at 37° C., 5% CO2 after which 1000 μl media was added on top of the gel. Cells were incubated at 37° C., 5% CO2. Every 3-4 days of culture, 500 μl media was replaced. The cells were cultured for 3 weeks and cells were assessed after 1, 2 and 3 weeks with Live/Dead. […] The IMAC cells appear to have high motility in these gels as evidenced by the channels that they create in the gels.

CCCCCCCCCCCCCCCC(=O)NC(C(=O)NCC(=O)N[C@@H](Cc1ccccc1)C(=O)NCC(=O)N[C@@H](Cc1ccccc1)C(=O)NCC(=O)N[C@@H](Cc1ccccc1)C(=O)NCC(=O)N[C@@H](CCC(N)=O)C(=O)N[C@@H](CCC(N)=O)C(=O)N[C@@H](CO)C(=O)O)C(=O)NCC(=O)N[C@@H](Cc1ccccc1)C(=O)NCC(=O)N[C@@H](Cc1ccccc1)C(=O)NCC(=O)N[C@@H](Cc1ccccc1)C(=O)NCC(=O)N[C@@H](CCC(N)=O)C(=O)N[C@@H](CCC(N)=O)C(=O)N[C@@H](CO)C(=O)O [Gly-Phe-Gly-Phe-Gly-Phe-Gly-Gln-Gln-Ser]
Gross observations (Sprague-Dawley rats): some fluid buildup at day 3
Viability of IMAC cells, Live/Dead ([1]; after 1, 2 and 3 weeks): very limited numbers of dead cells were detected
Motility of IMAC cells in the gel ([1]; three weeks, channels created in the gels): high motility
